≈ marks a conversion by molar mass, not a printed value.
Assays:
Assay in all cases: microbe, parasite or virus in culture
Type in all cases: cell-based
[1] = system: Enterococcus fecalis Strain MMH594 - NR31975; conditions: Enterococcus, Table 4; Wild-type E. fecalis NR 31975
Method: The minimum inhibitory concentrations (MICs) of the compounds and control drugs were determined using the broth microdilution method, according to guidelines outlined by the Clinical and Laboratory Standards Institute (CLSI). Enterococci strains were grown aerobically overnight on tryptone soya agar plates at 37° C., afterwards a bacterial solution equivalent to 0.5 McFarland standard was prepared and diluted in tryptone soy broth (TSB) to achieve a bacterial concentration of about 5×10^5 CFU/mL and seeded in 96-well well plates. Compounds and control drugs were added in the first row of the 96-well plates and serially diluted along the plates. Plates were then incubated aerobically at 37° C. for 18-20 hours. MICs reported in Table 1 are the minimum concentration of the compounds/control drugs that could inhibit completely the visual growth of the bacteria.

[2] = system: Mutant-4 of Enterococcus fecalis NR 31975
[3] = system: Mutant-6 of Enterococcus fecalis NR 31975
[4] = system: Mutant-7 of Enterococcus fecalis NR 31975
[5] = system: Mutant-13 of Enterococcus fecalis NR 31975
[6] = system: Mutant-14 of Enterococcus fecalis NR 31975

## CC(C)=CC(=O)Nc1nnc(S(N)(=O)=O)s1 [CAI0016, 3-Methyl-N-(5-sulfamoyl-1,3,4-thiadiazol-2-yl)but-2-enamide]
[1]
  MIC: 1 µg/mL (≈ 3.81 µM)
[2]
  MIC: 8 µg/mL (≈ 30.5 µM)
[3]
  MIC: 16 µg/mL (≈ 61 µM)
[4]
  MIC: 4 µg/mL (≈ 15.2 µM)
[5]
  MIC: 4 µg/mL (≈ 15.2 µM)
[6]
  MIC: 4 µg/mL (≈ 15.2 µM)

From patent publication US20250328351A1, “CARBONIC ANHYDRASE INHIBITORS AND ANTIBIOTICS AGAINST MULTIDRUG RESISTANT BACTERIA” (Purdue Research Foundation, priority 2018, published 2025)
